Consider three compounds from patent US20120027819A1, “Medical Devices Incorporating a Bioactive and Methods of Preparing Such Devices” (priority 2006, published 2012).

A short description of data set [1]: Elution of bupivacaine from spray-coated ureteral stents in aqueous buffers (Example 1, FIG. 7). The data set is classed as physicochemical. The settings on record: for time to release/elute from coated stent (in words): ionic form coated on stent, aqueous environment, same conditions, hydrochloride. The text has this:
(§1) An approximately 0.6% solution of bupivacaine having a tertiary amine in the non-ionic form (formula (2a) above) in dichloromethane was loaded into a syringe mounted onto a syringe pump and connected to a tube that carried the solution to an ultrasonic nozzle (Model 06-05108—Sono-Tek Co., Poughkeepsie, N.Y. 12547.) A nozzle was 6 mm diameter, 11 mm long and used with a nominal frequency of 120 kHz. Air was purged from the solution line and the spray nozzle primed with the solution. The coating chamber was purged with nitrogen to attain an oxygen concentration below 100 ppm. The solution was sprayed onto ureteral stent substrates 20 to 280 mm long (polyurethane double pigtail soflex ureteral stent, Cook Incorporated (Bloomington, Ind.)). A smooth, uniform coating was observed. Control stents were coated with the same concentration of Bupivacaine.HCl using the above coating method.
The stents were placed in solutions at different pH values to test the elution of bupivacaine over time. […] Acetic acid/sodium acetate was used for the pH 4.5 buffer, 0.1M phosphate-buffered solution (PBS) for the pH 7.0 buffer, and sodium carbonate for the pH 9.5 buffer.

Data set [2] in a line: Exposure of coated ureteral stent to water / aqueous environment (FIGS. 8, 10). The data set is classed as physicochemical.
Excerpt: as §1
FIGS. 8-11 depict photomicrographs of the coatings showing the uniformity and tenacity of the non-ionic coatings, in contrast to the water-soluble ionic coatings. […] FIG. 9 depicts a relatively rough, crystalline coating 91 of bupivacaine-HCl on a ureteral stent 90, on the left, and the same stent after a one-minute ex vivo exposure to a pig ureter.
FIG. 11 then depicts the same type of stent 110 with a coating 114 of the non-ionic form of bupivacaine after 24 hours in an ex vivo test with a pig ureter.

For data set [3] the following is noted: cited from earlier work.
The conditions of data set [4]: cited from earlier work. The source holds these as a separate data set.

Turning to `CCCCN1CCCCC1C(=O)Nc1c(C)cccc1C` (stereo not drawn) [bupivacaine, 1-Butyl-N-(2,6-dimethylphenyl)-2-piperidinecarboxamide], the “effect of eluting solution pH on elution rate” value in data set [1] (increasing the pH from 4.5 to 9.5) is on record as “slightly slowed the rate of bupivacaine elution”. In addition, the “period over which release from ureteral stent occurs” value in data set [1] (non-ionic form coated on ureteral stent, buffers pH 4.5, 7.0, 9.5) was “about 12 days”. In addition, in data set [2] (exposed to an aqueous environment for several days), the “state of coating after aqueous exposure” value is “virtually no effect on the coating”. For the same compound, the pKa (in general, the negative logarithm of the acid dissociation constant) in data set [3] (Table 1, acidic proton of proton binding site) is 8.09. For the same compound, the “pKa of acidic proton of proton binding site” value in data set [3] (in water) was “about 8”. The solubility result in data set [4] (base or non-ionic form, water) is recorded as “about 0.2 mg/mL”. In addition, the “water solubility (in words)” value in data set [4] is “only very slightly soluble in water”.
With `CCCCN1CCCCC1C(=O)Nc1c(C)cccc1C.Cl` (stereo not drawn) [Bupivacaine.HCl, 1-butyl-N-(2,6-dimethylphenyl)-2-piperidinecarboxamide hydrochloride], the “time to release/elute from coated stent (in words)” value is on record as “within a matter of minutes” in data set [1] and “eluted fully within minutes” in data set [1] (listed as bupivacaine.HCl). Also, the “state of coating after dipping in water” value in data set [2] (dipped in water for one minute) was “substantially dissolved”. Also, the “water solubility (in words)” value in data set [4] is “soluble in water”.
With `C[C@@H]1C[C@H]2[C@@H]3CCC4=CC(=O)C=C[C@]4(C)[C@@]3(F)[C@@H](O)C[C@]2(C)[C@@]1(O)C(=O)CO` [Dexamethasone], the “water solubility (in words)” value in data set [4] is “practically insoluble in water”.
